Assay results: the supplement of paper PMC10307832

Tests used:
Assay in all cases: relative viability (nuclei count vs DMSO), 5 days (fraction); higher = more cells survive
[1] = compound: CC1(COc2ccc3c(c2)ncn3-c2ccc3cccc(N4CCC(N)CC4)c3n2)COC1 [Crenolanib] + O=C(c1cc(Cc2n[nH]c(=O)c3ccccc23)ccc1F)N1CCN(C(=O)C2CC2)CC1 [Olaparib] (partner 8 µM)
How it was run: (§1)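 For relative viability, nuclei counts in treated wells were divided by those in vehicle wells. Lung cancer cell lines had been pin-tool dosed in 1536-well plates the day after seeding and cultured for 5 days, then fixed and stained in one step (final 0.05% Triton X-100, 1% formaldehyde, 1 ug/ml Hoechst) and imaged at 4×. Doses were one drug alone or a fixed anchor-drug dose plus five library-drug doses (not always all listed) in √10 steps, and values are duplicate-plate medians.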

[2] = compound: CC1(COc2ccc3c(c2)ncn3-c2ccc3cccc(N4CCC(N)CC4)c3n2)COC1 [Crenolanib] + Nc1nc2[nH]cc(CCc3ccc(C(=O)N[C@@H](CCC(=O)O)C(=O)O)cc3)c2c(=O)[nH]1 [Pemetrexed] (partner 0.2 µM)
How it was run: as §1

[3] = compound: O=C1NC(=O)[C@@H](c2cn3c4c(cccc24)CCC3)[C@@H]1c1c[nH]c2ccccc12 [Tivantinib] + Cc1nc(Nc2ncc(C(=O)Nc3c(C)cccc3Cl)s2)cc(N2CCN(CCO)CC2)n1 [Dasatinib] (partner 0.075 µM)
How it was run: as §1

[4] = compound: CC1(COc2ccc3c(c2)ncn3-c2ccc3cccc(N4CCC(N)CC4)c3n2)COC1 [Crenolanib] + Cc1nc(NC(=O)N2CCC[C@H]2C(N)=O)sc1-c1ccnc(C(C)(C)C(F)(F)F)c1 [Alpelisib] (partner 2 µM)
How it was run: as §1

UMC-11 showed a relative viability ([1]; first compound 0.01 µM) of 0.394, a relative viability ([1]; first compound 0.03162 µM) of 0.35 and a relative viability ([1]; first compound 0.1 µM) of 0.379. It also gave a relative viability ([1]; first compound 0.3162 µM) of 0.556, a relative viability ([1]; first compound 1 µM) of 0.341 and a relative viability ([2]; first compound 0.01 µM) of 0.791. The relative viability ([2]; first compound 0.03162 µM) was 0.755, the relative viability ([2]; first compound 0.1 µM) was 0.738 and the relative viability ([2]; first compound 0.3162 µM) was 0.832. The relative viability ([2]; first compound 1 µM) was 0.741, the relative viability ([3]; first compound 0.01 µM) was 0.43 and the relative viability ([3]; first compound 0.03162 µM) was 0.491. The relative viability ([3]; first compound 0.1 µM) was 0.421, the relative viability ([3]; first compound 0.3162 µM) was 0.614 and the relative viability ([4]; first compound 0.01 µM) was 1.06. The relative viability ([4]; first compound 0.03162 µM) was 0.958, the relative viability ([4]; first compound 0.1 µM) was 0.956 and the relative viability ([4]; first compound 0.3162 µM) was 1.14. For the same cell line, the relative viability ([4]; first compound 1 µM) was 0.989.
